This assay relates to gelatin. Put plainly: Collagenase cleavage of patterned gelatin on biosensor, BIND imaging. In kind it is biochemical. The following applies: 1.5 mg/ml collagenase; gelatin versus regions without gelatin (rabbit IgG). Here is the method: A pattern of gelatin (1 mg/ml, Sigma) was applied to a biosensor with a micropipette tip in the shape of the letters “SRU.” The gelatin was allowed to incubate on the biosensor surface for about 60 minutes before a thorough rinse with water. Next, the entire biosensor surface was exposed to a 1 mg/ml solution of rabbit IgG (Sigma) that attached a uniform thin layer of protein across the biosensor so that the peak wavelength value of the biosensor would be roughly equivalent in all locations. After a second rinse in water, the entire biosensor was exposed to a 1.5 mg/ml solution of collagenase, a specific binding partner, for about 80 minutes. The collagenase is an enzyme that selectively cleaves gelatin, thus selectively removing protein from the surface only in regions where the gelatin was applied. […] As a consequence of this selective interaction, an image is measured where the word “SRU” appears as a region with lower peak wavelength value compared to surrounding regions, as shown in FIG. 10.

“Also recorded” adds a separate entry of the source.

Regarding collagenase, the “peak wavelength value change in gelatin regions after collagenase” value is recorded as “peak wavelength value in the gelatin regions is reduced relative to the regions without gelatin; also recorded: peak wavelength value in the gelatin reaction surfaces is reduced relative to the reference surfaces without gelatin”.

The values above are taken from patent publication US7927789B1, “Self-referencing biodetection method and patterned bioassays” (SRU Biosystems, Inc., priority 2002, dated 2011).
